Laboratory results as given in patent US20080280862A1, “Methods, compositions, and kits for the treatment of pain” (priority 2007, published 2008).

Tests used:
TNFα = TNFα secretion by human white blood cells stimulated with PMA/ionomycin, synergy score; type: cell-based; parameters: key: S = Σ Idata(Idata−ILoewe) × ln dilution factors; volume over Loewe additivity; conditions: PBMC stimulated with PMA/Ionomycin
Description: A 100 μl suspension of diluted human white blood cells contained within each well of a polystyrene 384-well plate (NalgeNunc) was stimulated to secrete TNFα by treatment with a final concentration of 10 ng/mL phorbol 12-myristate 13-acetate (Sigma, P-1585) and 750 ng/mL ionomycin (Sigma, I-0634). Various concentrations of each test compound were added at the time of stimulation. After 16-18 hours of incubation at 37° C. in a humidified incubator, the plate was centrifuged and the supernatant transferred to a white opaque polystyrene 384-well plate (NalgeNunc, Maxisorb) coated with an anti-TNFα antibody (PharMingen, #551220). After a two-hour incubation, the plate was washed (Tecan PowerWasher 384) with PBS containing 0.1% Tween 20 and incubated for an additional one hour with another anti-TNFα antibody that was biotin labeled (PharMingen, #554511) and HRP coupled to strepavidin (PharMingen, #13047E). After the plate was washed with 0.1% Tween 20/PBS, an HRP-luminescent substrate was added to each well and light intensity measured using a LJL Analyst plate luminometer.
The synergy scores calculated for the various combinations of compounds set forth in Table 3 was calculated by the formula S=log fX log fYΣIdata(Idata−ILoewe), summed over all non-single-agent concentration pairs, and where log fX,Y are the natural logarithm of the dilution factors used for each single agent. This effectively calculates a volume between the measured and Loewe additive response surfaces, weighted towards high inhibition and corrected for varying dilution factors.

[1] = system: formalin-induced pain model in rats; experiment: Formalin pain model, nociceptive behaviors; type: in vivo, Sprague-Dawley rats
Description: The formalin model is a fast, reliable model used to assess potential analgesics ability to block inflammatory pain. The analgesic effects of test article combinations on pain generation are assayed using the formalin-induced pain model in rats. Adult male Sprague-Dawley rats are administered intraperitoneally study drugs (vehicle, TCA, steroid or TCA/Steroid test article combinations) once daily for 2 days (day −2 and day −1) and 30 minutes prior to the formalin injection day on day 0 (time=0). […] To elicit a pain response, dilute formalin (2% in saline) is injected under the skin of the plantar surface of the right hindpaw. The animal is placed in an observation chamber. The pain response is a characteristic biphasic response pattern of nociceptive behaviors (lifting, licking, and biting of the injected paw). Two distinct periods of nociceptive behaviors/activity are observed and recorded: an early phase (phase I) lasting the first 5-10 min and a late phase (phase II) lasting 20-40 min after the injection of formalin. One hour of data is collected (time spent displaying pain behavior) by a blinded observer using a stopwatch. Results are expressed as the number of pain behaviors per 5 minute periods (Table 8 and Table 9).

CN(C)CCC=C1c2ccccc2CCc2ccccc21 [Amitriptyline]
Synergy Score based on TNF-α inhibition (TNFα; combination with Betamethasone): 0.7 | Synergy Score based on TNF-α inhibition (TNFα; combination with Budesonide): 0.78 | Synergy Score based on TNF-α inhibition (TNFα; combination with Clobetasol): 0.75 | Synergy Score based on TNF-α inhibition (TNFα; combination with Dexamethasone): 1.2 | Synergy Score based on TNF-α inhibition (TNFα; combination with Diflorasone): 0.59 | Synergy Score based on TNF-α inhibition (TNFα; combination with Hydrocortisone): 0.78 | Synergy Score based on TNF-α inhibition (TNFα; combination with Prednisolone): 0.68 | Synergy Score based on TNF-α inhibition (TNFα; combination with Triamcinolone): 0.34 | Mean number of behaviors per 5 minute block ([1]; Experiment One, amitriptyline, 1 mg/kg, 5 minutes): 233.0 ± 10.0 | Mean number of behaviors per 5 minute block ([1]; Experiment One, amitriptyline, 1 mg/kg, 10 minutes): 52.0 ± 23 | Mean number of behaviors per 5 minute block ([1]; Experiment One, amitriptyline, 1 mg/kg, 15 minutes): 84.0 ± 28.0 | Mean number of behaviors per 5 minute block ([1]; Experiment One, amitriptyline, 1 mg/kg, 20 minutes): 49.0 ± 39.0 | Mean number of behaviors per 5 minute block ([1]; Experiment One, amitriptyline, 1 mg/kg, 25 minutes): 228.0 ± 31.0 | Mean number of behaviors per 5 minute block ([1]; Experiment One, amitriptyline, 1 mg/kg, 30 minutes): 244.0 ± 19.0 | Mean number of behaviors per 5 minute block ([1]; Experiment One, amitriptyline, 1 mg/kg, 35 minutes): 240.0 ± 17.0 | Mean number of behaviors per 5 minute block ([1]; Experiment One, amitriptyline, 1 mg/kg, 40 minutes): 214.0 ± 27.0 | Mean number of behaviors per 5 minute block ([1]; Experiment One, amitriptyline, 1 mg/kg, 45 minutes): 167.0 ± 31.0 | Mean number of behaviors per 5 minute block ([1]; Experiment One, amitriptyline, 1 mg/kg, 50 minutes): 63.0 ± 23.0 | Mean number of behaviors per 5 minute block ([1]; Experiment One, amitriptyline, 1 mg/kg, 55 minutes): 39.0 ± 21.0 | Mean number of behaviors per 5 minute block ([1]; Experiment One, amitriptyline, 1 mg/kg, 60 minutes): 28.0 ± 23.0 | Mean number of behaviors per 5 minute block ([1]; Experiment One, amitriptyline, 3 mg/kg, 5 minutes): 206.0 ± 16.2 | Mean number of behaviors per 5 minute block ([1]; Experiment One, amitriptyline, 3 mg/kg, 10 minutes): 59.0 ± 23.2 | Mean number of behaviors per 5 minute block ([1]; Experiment One, amitriptyline, 3 mg/kg, 15 minutes): 64.0 ± 21.6 | Mean number of behaviors per 5 minute block ([1]; Experiment One, amitriptyline, 3 mg/kg, 20 minutes): 166.0 ± 36.7 | Mean number of behaviors per 5 minute block ([1]; Experiment One, amitriptyline, 3 mg/kg, 25 minutes): 229.0 ± 29.4 | Mean number of behaviors per 5 minute block ([1]; Experiment One, amitriptyline, 3 mg/kg, 30 minutes): 242.0 ± 27.6 | Mean number of behaviors per 5 minute block ([1]; Experiment One, amitriptyline, 3 mg/kg, 35 minutes): 210.0 ± 35.9 | Mean number of behaviors per 5 minute block ([1]; Experiment One, amitriptyline, 3 mg/kg, 40 minutes): 242.0 ± 30.3 | Mean number of behaviors per 5 minute block ([1]; Experiment One, amitriptyline, 3 mg/kg, 45 minutes): 174.0 ± 36.0 | Mean number of behaviors per 5 minute block ([1]; Experiment One, amitriptyline, 3 mg/kg, 50 minutes): 119.0 ± 45.0 | Mean number of behaviors per 5 minute block ([1]; Experiment One, amitriptyline, 3 mg/kg, 55 minutes): 73.0 ± 36.6 | Mean number of behaviors per 5 minute block ([1]; Experiment One, amitriptyline, 3 mg/kg, 60 minutes): 47.0 ± 26.9 | Mean number of behaviors per 5 minute block ([1]; Experiment One, amitriptyline, 10 mg/kg, 5 minutes): 217.0 ± 18.1 | Mean number of behaviors per 5 minute block ([1]; Experiment One, amitriptyline, 10 mg/kg, 10 minutes): 16.0 ± 8.8 | Mean number of behaviors per 5 minute block ([1]; Experiment One, amitriptyline, 10 mg/kg, 15 minutes): 45.0 ± 24.1 | Mean number of behaviors per 5 minute block ([1]; Experiment One, amitriptyline, 10 mg/kg, 20 minutes): 84.0 ± 39.0 | Mean number of behaviors per 5 minute block ([1]; Experiment One, amitriptyline, 10 mg/kg, 25 minutes): 128.0 ± 41.0 | Mean number of behaviors per 5 minute block ([1]; Experiment One, amitriptyline, 10 mg/kg, 30 minutes): 151.0 ± 40.9 | Mean number of behaviors per 5 minute block ([1]; Experiment One, amitriptyline, 10 mg/kg, 35 minutes): 152.0 ± 41.1 | Mean number of behaviors per 5 minute block ([1]; Experiment One, amitriptyline, 10 mg/kg, 40 minutes): 138.0 ± 39.4 | Mean number of behaviors per 5 minute block ([1]; Experiment One, amitriptyline, 10 mg/kg, 45 minutes): 67.0 ± 26.7 | Mean number of behaviors per 5 minute block ([1]; Experiment One, amitriptyline, 10 mg/kg, 50 minutes): 70.0 ± 27.8 | Mean number of behaviors per 5 minute block ([1]; Experiment One, amitriptyline, 10 mg/kg, 55 minutes): 42.0 ± 13.8 | Mean number of behaviors per 5 minute block ([1]; Experiment One, amitriptyline, 10 mg/kg, 60 minutes): 45.0 ± 25.2 | Mean number of behaviors per 5 minute block ([1]; Experiment One, amitriptyline, 20 mg/kg, 5 minutes): 168.0 ± 24.3 | Mean number of behaviors per 5 minute block ([1]; Experiment One, amitriptyline, 20 mg/kg, 10 minutes): 41.0 ± 22.4 | Mean number of behaviors per 5 minute block ([1]; Experiment One, amitriptyline, 20 mg/kg, 15 minutes): 1.0 ± 0.9 | Mean number of behaviors per 5 minute block ([1]; Experiment One, amitriptyline, 20 mg/kg, 20 minutes): 13.0 ± 10.2 | Mean number of behaviors per 5 minute block ([1]; Experiment One, amitriptyline, 20 mg/kg, 25 minutes): 32.0 ± 13.7 | Mean number of behaviors per 5 minute block ([1]; Experiment One, amitriptyline, 20 mg/kg, 30 minutes): 81.0 ± 34.3 | Mean number of behaviors per 5 minute block ([1]; Experiment One, amitriptyline, 20 mg/kg, 35 minutes): 93.0 ± 41.3 | Mean number of behaviors per 5 minute block ([1]; Experiment One, amitriptyline, 20 mg/kg, 40 minutes): 85.0 ± 37.2 | Mean number of behaviors per 5 minute block ([1]; Experiment One, amitriptyline, 20 mg/kg, 45 minutes): 99.0 ± 34.0 | Mean number of behaviors per 5 minute block ([1]; Experiment One, amitriptyline, 20 mg/kg, 50 minutes): 82.0 ± 33.8 | Mean number of behaviors per 5 minute block ([1]; Experiment One, amitriptyline, 20 mg/kg, 55 minutes): 66.0 ± 36.8 | Mean number of behaviors per 5 minute block ([1]; Experiment One, amitriptyline, 20 mg/kg, 60 minutes): 59.0 ± 31.1

C[C@]12C=CC(=O)C=C1CC[C@@H]1[C@@H]2[C@@H](O)C[C@@]2(C)[C@H]1CC[C@]2(O)C(=O)CO [Prednisolone]
Mean number of behaviors per 5 minute block ([1]; Experiment Two, 1 mg/kg, 5 minutes): 224.0 ± 34.1 | Mean number of behaviors per 5 minute block ([1]; Experiment Two, 1 mg/kg, 10 minutes): 27.0 ± 11.7 | Mean number of behaviors per 5 minute block ([1]; Experiment Two, 1 mg/kg, 15 minutes): 18.0 ± 15.2 | Mean number of behaviors per 5 minute block ([1]; Experiment Two, 1 mg/kg, 20 minutes): 115.0 ± 41.9 | Mean number of behaviors per 5 minute block ([1]; Experiment Two, 1 mg/kg, 25 minutes): 172.0 ± 51.1 | Mean number of behaviors per 5 minute block ([1]; Experiment Two, 1 mg/kg, 30 minutes): 178.0 ± 52.0 | Mean number of behaviors per 5 minute block ([1]; Experiment Two, 1 mg/kg, 35 minutes): 174.0 ± 48.7 | Mean number of behaviors per 5 minute block ([1]; Experiment Two, 1 mg/kg, 40 minutes): 207.0 ± 43.9 | Mean number of behaviors per 5 minute block ([1]; Experiment Two, 1 mg/kg, 45 minutes): 197.0 ± 45.3 | Mean number of behaviors per 5 minute block ([1]; Experiment Two, 1 mg/kg, 50 minutes): 192.0 ± 48.4 | Mean number of behaviors per 5 minute block ([1]; Experiment Two, 1 mg/kg, 55 minutes): 113.0 ± 43.2 | Mean number of behaviors per 5 minute block ([1]; Experiment Two, 1 mg/kg, 60 minutes): 92.0 ± 29.7 | Mean number of behaviors per 5 minute block ([1]; Experiment Two, 3 mg/kg, 5 minutes): 218.0 ± 14.7 | Mean number of behaviors per 5 minute block ([1]; Experiment Two, 3 mg/kg, 10 minutes): 15.0 ± 6.7 | Mean number of behaviors per 5 minute block ([1]; Experiment Two, 3 mg/kg, 15 minutes): 6.0 ± 3.4 | Mean number of behaviors per 5 minute block ([1]; Experiment Two, 3 mg/kg, 20 minutes): 68.0 ± 19.8 | Mean number of behaviors per 5 minute block ([1]; Experiment Two, 3 mg/kg, 25 minutes): 208.0 ± 35.5 | Mean number of behaviors per 5 minute block ([1]; Experiment Two, 3 mg/kg, 30 minutes): 214.0 ± 39.8 | Mean number of behaviors per 5 minute block ([1]; Experiment Two, 3 mg/kg, 35 minutes): 254.0 ± 29.2 | Mean number of behaviors per 5 minute block ([1]; Experiment Two, 3 mg/kg, 40 minutes): 269.0 ± 14.2 | Mean number of behaviors per 5 minute block ([1]; Experiment Two, 3 mg/kg, 45 minutes): 258.0 ± 19.9 | Mean number of behaviors per 5 minute block ([1]; Experiment Two, 3 mg/kg, 50 minutes): 221.0 ± 36.1 | Mean number of behaviors per 5 minute block ([1]; Experiment Two, 3 mg/kg, 55 minutes): 198.0 ± 38.1 | Mean number of behaviors per 5 minute block ([1]; Experiment Two, 3 mg/kg, 60 minutes): 133.0 ± 46.8
